Patent publication US4966914A, “Oculoselective beta-blockers as antiglaucoma agents” (E. I. Du Pont de Nemours and Company, priority 1988, dated 1990)
Where two headings read alike, the source gives them in different places.

Columns and labels:
ATRIA = molecular target: T1, ATRIA (Cavia porcellus, UniProt H0W3H1); experiment: In vitro potency (pA2), beta-blocking, atria; assay type: cell-based
T1 construct: ATRIA; from tissue
Method: (§1) The in vitro potency (pA2), in vivo potency and duration of action (DOA) of the compounds of the present invention are recorded in Tables 2 to 4. These pharmacological activities were determined using the methods described in U.S. patent 4,582,855 issued Apr.

[1] = tested on: isoproterenol-induced changes in heart rate or diastolic blood pressure; experiment: Effect on systemic beta-blockade upon topical administration (isoproterenol-induced changes in heart rate or diastolic blood pressure); assay type: in vivo, Mongrel dogs; settings: for Diastolic blood pressure (DBP) / Heart rate (HR): Table 1, 0.5%
Method: Mongrel dogs were anesthetized and control readings were made at -45 and -30 minutes. Following the -30 minute reading, an infusion of isoproterenol (0.5 μg/kg/min) was begun and maintained during the course of the experiment. Two readings of pretreatment isoproterenol responses were made at […] and at zero minutes.
At zero minutes, a 50 μL sample of test compound was administered topically. […] Heart rate was obtained directly from the strip chart recording.

[2] = Ocular bioavailability in rabbits; assay type: in vivo, New Zealand White Rabbits; settings: for Tmax: rabbit, topical or ocular
Method: The ocular bioavailability of Timolol and compound 1 (monopivaloyl ester prodrug of compound 2) was evaluated in New Zealand White Rabbits. Fifty μL of a solution of 0.25% Timolol or 0.5% compound 1 (both in the same vehicle) were administered onto the cornea of both eyes of 48 rabbits (24 rabbits/compound). At 5, 15, 30, 60, 120, 180, 240, and 360 minutes after dosing, 3 rabbits (6 eyes)/compound were killed. The cornea, aqueous humor (AH), iris-ciliary body complex (I-CBC) were quickly removed from the eyes, weighed and processed to determine tissue levels of Timolol or compound 1 and compound 2.

beta-blocking effects = experiment: In vivo beta-blocking potency and duration of action (DOA); settings: for DOA (duration of action): Tables 2 and 4
Method: as §1

[3] = Table 3, atria, read-out: pA2 ATRIA (converted)
[4] = 50 μL, 0.25% solution, single or repeated topical applications
[5] = 15 min post-treatment, isoproterenol infusion
[6] = 30 min post-treatment, isoproterenol infusion
[7] = 45 min post-treatment, isoproterenol infusion
[8] = 60 min post-treatment (dose), isoproterenol infusion
[9] = 75 min post-treatment, isoproterenol infusion
[10] = 90 min post-treatment, isoproterenol infusion
[11] = 105 min post-treatment, isoproterenol infusion
[12] = 120 min post-treatment (dose), isoproterenol infusion
[13] = 135 min post-treatment, isoproterenol infusion
[14] = 150 min post-treatment, isoproterenol infusion
[15] = 165 min post-treatment, isoproterenol infusion
[16] = 180 min post-treatment, isoproterenol infusion
[17] = Table 1 summary, given as "down"
[18] = Tables 2 and 4, read-out: In-vitro potency pA2 (converted)

T1 sequence (H0W3H1 1-470): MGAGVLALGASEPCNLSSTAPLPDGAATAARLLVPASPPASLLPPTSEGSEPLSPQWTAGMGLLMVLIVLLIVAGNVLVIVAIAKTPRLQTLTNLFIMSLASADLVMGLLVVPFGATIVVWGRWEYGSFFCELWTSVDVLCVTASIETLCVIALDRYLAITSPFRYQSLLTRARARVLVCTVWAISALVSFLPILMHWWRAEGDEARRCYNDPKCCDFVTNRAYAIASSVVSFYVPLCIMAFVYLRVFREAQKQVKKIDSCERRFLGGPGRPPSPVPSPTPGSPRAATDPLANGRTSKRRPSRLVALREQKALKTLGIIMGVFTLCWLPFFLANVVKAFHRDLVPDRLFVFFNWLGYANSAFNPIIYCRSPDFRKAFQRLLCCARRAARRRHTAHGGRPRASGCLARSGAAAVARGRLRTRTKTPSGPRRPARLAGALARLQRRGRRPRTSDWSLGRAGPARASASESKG

Compound: Cc1cc(O)c(O)cc1C(=O)OCC(O)CNC(C)(C)CNC(=O)C1CCC1 (stereo not drawn)
- Kb (ATRIA; [3]): 0.00501 µM

Compound: CC(C)C(=O)NCC(C)(C)NCC(O)COC(=O)c1cc(O)c(O)cc1N (stereo not drawn)
- Kb (ATRIA; [3]): 0.0794 µM

Compound: Cc1cc(O)c(O)cc1C(=O)OCC(CNC(C)(C)CNC(=O)C1CCOC1)OC(=O)C(C)(C)C (stereo not drawn) [Compound 1]
- Effect on diastolic blood pressure response to isoproterenol ([1]; 50 μL at 0.5 or 1.0% solution): without any significant effect
- Systemic beta-blockade of isoproterenol-induced increase in heart rate ([1]; 50 μL at 0.5 or 1.0% solution): no significant systemic beta-blockade
- Diastolic blood pressure response to isoproterenol ([1]; 50 μL at 0.5 or 1.0% solution, from-to): 58-63 mmHg
- Effect on diastolic blood pressure response to isoproterenol [1, 4]: no effect
- Effect on heart rate response to isoproterenol [1, 4]: no effect
- Diastolic blood pressure (DBP) ([1]; 0 min, ISO only): 58 mmHg
- Heart rate (HR) ([1]; 0 min, ISO only): 199 bpm
- Diastolic blood pressure (DBP) [1, 5]: 56 mmHg
- Heart rate (HR) [1, 5]: 195 bpm
- Diastolic blood pressure (DBP) [1, 6]: 55 mmHg
- Heart rate (HR) [1, 6]: 192 bpm
- Diastolic blood pressure (DBP) [1, 7]: 54 mmHg
- Heart rate (HR) [1, 7]: 188 bpm
- Diastolic blood pressure (DBP) [1, 8]: 55 mmHg
- Heart rate (HR) [1, 8]: 189 bpm
- Diastolic blood pressure (DBP) [1, 9]: 55 mmHg
- Heart rate (HR) [1, 9]: 189 bpm
- Diastolic blood pressure (DBP) [1, 10]: 56 mmHg
- Heart rate (HR) [1, 10]: 189 bpm
- Diastolic blood pressure (DBP) [1, 11]: 57 mmHg
- Heart rate (HR) [1, 11]: 190 bpm
- Diastolic blood pressure (DBP) [1, 12]: 59 mmHg
- Heart rate (HR) [1, 12]: 192 bpm
- Diastolic blood pressure (DBP) [1, 13]: 61 mmHg
- Heart rate (HR) [1, 13]: 192 bpm
- Diastolic blood pressure (DBP) [1, 14]: 60 mmHg
- Heart rate (HR) [1, 14]: 192 bpm
- Diastolic blood pressure (DBP) [1, 15]: 60 mmHg
- Heart rate (HR) [1, 15]: 192 bpm
- Diastolic blood pressure (DBP) [1, 16]: 63 mmHg
- Heart rate (HR) [1, 16]: 193 bpm
- Diastolic blood pressure (DBP) ([1]; -30 min, baseline): 87 mmHg
- Heart rate (HR) ([1]; -30 min, baseline): 143 bpm
- Summary: BP ([1]; Table 1 summary, from ISO only to end of experiment): 58-63 mmHg
- Summary: BP change [1, 17]: 5 mmHg
- Summary: HR change [1, 17]: 6 bpm
- Systemic beta-blocking activity as compared to Timolol ([1]; conclusion in words): has systemic beta-blocking activity as compared to Timolol
- Selectivity of peripheral effects ([1]; high concentration, unlike Timolol): selective for beta-1 (heart rate) responses
- Absorption across the cornea ([2]; 0.25% Timolol or 0.5% compound 1, topical): rapidly absorbed across the cornea
- Metabolism of compound 1 to compound 2 ([2]; 0.5% compound 1, topical): rapid metabolism of compound 1 to compound 2
- AUC in AH relative to AUC of Timolol in AH ([2]; 0.5% compound 1 vs 0.25% Timolol, greater than Timolol): 3 ×
- Detectability in I-CBC ([2]; I-CBC, 0.5% compound 1): not detectable
- Tmax ([2]; aqueous humor, AH, 0.25% Timolol or 0.5% compound 1, read-out: Time of peak level in aqueous humor (AH) (converted)): 30 min
- Tmax ([2]; cornea, 0.25% Timolol or 0.5% compound 1, read-out: Time of peak level in cornea (converted)): 5 min

Compound: Cc1cc(O)c(O)cc1C(=O)OCC(O)CNC(C)(C)CNC(=O)c1ccoc1 (stereo not drawn)
- Kb (ATRIA; [3]): 0.0251 µM

Compound: CCOc1cc(O)c(O)cc1C(=O)OCC(O)CNC(C)(C)CNC(=O)C(C)C (stereo not drawn) [drawing 32]
- Kb (ATRIA; [3]): 0.02 µM

Compound: Cc1cc(O)c(O)cc1C(=O)OCC(O)CNC(C)(C)CNC(=O)C1CCOCC1 (stereo not drawn)
- Kb (ATRIA; [18]): 0.00501 µM
- DOA (duration of action) (beta-blocking effects): 26 min

Compound: Cc1cc(O)c(O)cc1C(=O)OCC(O)CNC(C)(C)CNC(=O)Cc1ccccc1 (stereo not drawn)
- Kb (ATRIA; [3]): 0.1 µM

Compound: Cc1cc(O)c(O)cc1C(=O)OCC(O)CNC(C)(C)CNC(=O)C1CCCCC1 (stereo not drawn)
- Kb (ATRIA; [18]): 0.00398 µM
- DOA (duration of action), second value after the slash (beta-blocking effects; Table 2, cell prints 31/>60): > 60 min
- DOA (duration of action) (beta-blocking effects): 31 min

Compound: CCOc1cc(O)c(O)cc1C(=O)OCC(O)CNC(C)(C)CNC(=O)C(C)C (stereo not drawn) [OEt]
- DOA (duration of action) (beta-blocking effects): 22 min

Compound: Cc1cc(O)c(O)cc1C(=O)OCC(O)CNC(C)(C)CNC(=O)C1CCOC1 (stereo not drawn) [Compound 2]
- Area under the concentration time curve (AUC0-240'), AH ([2]; AH, 0-240 min, 0.25% Timolol or 0.5% compound 1): 27,377 ng/100 μL/min
- Area under the concentration time curve (AUC0-240'), I-CBC ([2]; I-CBC, 0-240 min, 0.25% Timolol or 0.5% compound 1): 2,981 ng/50 mg/min
- Area under the concentration time curve (AUC0-240'), cornea ([2]; cornea, 0-240 min, 0.25% Timolol or 0.5% compound 1): 95,789 ng/50 mg/min
- Stability in rabbit ocular tissues ([2]; rabbit ocular tissues): stable in rabbit ocular tissues

Compound: CCCC(=O)NCC(C)(C)NCC(O)COC(=O)c1cc(O)c(O)cc1C (stereo not drawn)
- Kb (ATRIA; [3]): 0.00631 µM

Compound: CC(C)(CNC(=O)C1CCCCC1)NCC(O)COC(=O)c1ccc(O)c(O)c1 (stereo not drawn)
- Kb (ATRIA; [3]): 0.00631 µM

Compound: COc1cc(O)c(O)cc1C(=O)OCC(O)CNC(C)(C)CNC(=O)C(C)C (stereo not drawn) [OMe]
- DOA (duration of action) (beta-blocking effects): 30 min

Compound: Cc1cc(O)c(O)cc1C(=O)OCC(O)CNC(C)(C)CNC(=O)c1ccccc1F (stereo not drawn)
- Kb (ATRIA; [3]): 0.1 µM
